Test results from ChEMBL document CHEMBL4507319 (2021).

Legend:
[1] = biological target: Atypical kinase COQ8A, mitochondrial (Homo sapiens) (UniProt Q8NI60); conditions: Compound concentration 1000.0 nM
[2] = biological target: Mitogen-activated protein kinase kinase kinase 13 (Homo sapiens) (UniProt O43283); conditions: Compound concentration 1000.0 nM
[3] = test system: Epidermal growth factor receptor (Homo sapiens), P00533 [G719S]; conditions: Compound concentration 1000.0 nM
[4] = biological target: STE20/SPS1-related proline-alanine-rich protein kinase (Homo sapiens) (UniProt Q9UEW8); conditions: Compound concentration 1000.0 nM
[5] = biological target: T1, MAP kinase-activated protein kinase 5 (Homo sapiens) (UniProt Q8IW41); conditions: Compound concentration 1000.0 nM
T1 sequence (whole entry): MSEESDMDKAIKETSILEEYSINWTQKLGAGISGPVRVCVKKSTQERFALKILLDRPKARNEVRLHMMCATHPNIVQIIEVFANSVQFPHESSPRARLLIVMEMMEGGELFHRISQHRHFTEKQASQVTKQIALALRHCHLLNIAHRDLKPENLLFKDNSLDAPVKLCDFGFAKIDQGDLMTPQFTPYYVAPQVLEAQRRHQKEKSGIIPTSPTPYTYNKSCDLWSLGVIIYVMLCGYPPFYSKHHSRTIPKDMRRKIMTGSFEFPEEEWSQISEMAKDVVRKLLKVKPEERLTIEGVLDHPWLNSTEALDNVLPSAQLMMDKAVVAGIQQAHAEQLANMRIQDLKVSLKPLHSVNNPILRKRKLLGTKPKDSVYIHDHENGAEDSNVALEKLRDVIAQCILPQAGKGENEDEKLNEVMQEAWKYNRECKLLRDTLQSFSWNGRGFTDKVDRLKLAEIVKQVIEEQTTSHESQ

[6] = biological target: Serine/threonine-protein kinase 32C (Homo sapiens) (UniProt Q86UX6); conditions: Compound concentration 1000.0 nM
[7] = test system: Receptor-type tyrosine-protein kinase FLT3 (Homo sapiens), P36888 [UNDEFINED MUTATION]; conditions: Compound concentration 1000.0 nM
[8] = biological target: Aurora kinase B (Homo sapiens) (UniProt Q96GD4); conditions: Compound concentration 1000.0 nM
[9] = biological target: Wee1-like protein kinase 2 (Homo sapiens) (UniProt P0C1S8); conditions: Compound concentration 1000.0 nM
[10] = test system: Mast/stem cell growth factor receptor Kit (Homo sapiens), P10721 [A829P]; conditions: Compound concentration 1000.0 nM
[11] = biological target: Dual specificity mitogen-activated protein kinase kinase 2 (Homo sapiens) (UniProt P36507); conditions: Compound concentration 1000.0 nM
[12] = biological target: Dual specificity mitogen-activated protein kinase kinase 1 (Homo sapiens) (UniProt Q02750); conditions: Compound concentration 1000.0 nM
[13] = biological target: Mitogen-activated protein kinase kinase kinase 10 (Homo sapiens) (UniProt Q02779); conditions: Compound concentration 1000.0 nM
[14] = biological target: Mitogen-activated protein kinase 10 (Homo sapiens) (UniProt P53779); conditions: Compound concentration 1000.0 nM
[15] = biological target: Cyclin-dependent kinase 16 (Homo sapiens) (UniProt Q00536); conditions: Compound concentration 1000.0 nM
[16] = biological target: Serine/threonine-protein kinase 32A (Homo sapiens) (UniProt Q8WU08); conditions: Compound concentration 1000.0 nM
[17] = biological target: Megakaryocyte-associated tyrosine-protein kinase (Homo sapiens) (UniProt P42679); conditions: Compound concentration 1000.0 nM
[18] = biological target: Serine/threonine-protein kinase N1 (Homo sapiens) (UniProt Q16512); conditions: Compound concentration 1000.0 nM
[19] = biological target: Angiopoietin-1 receptor (Homo sapiens) (UniProt Q02763); conditions: Compound concentration 1000.0 nM
[20] = test system: Receptor-type tyrosine-protein kinase FLT3 (Homo sapiens), P36888 [D835V]; conditions: Compound concentration 1000.0 nM
[21] = biological target: Serine/threonine-protein kinase PLK3 (Homo sapiens) (UniProt Q9H4B4); conditions: Compound concentration 1000.0 nM
[22] = biological target: Phosphatidylinositol 3-kinase catalytic subunit type 3 (Homo sapiens) (UniProt Q8NEB9); conditions: Compound concentration 1000.0 nM
[23] = biological target: Serine/threonine-protein kinase DCLK1 (Homo sapiens) (UniProt O15075); conditions: Compound concentration 1000.0 nM
[24] = biological target: Mitogen-activated protein kinase 8 (Homo sapiens) (UniProt P45983); conditions: Compound concentration 1000.0 nM
[25] = test system: Epidermal growth factor receptor (Homo sapiens), P00533 [L858R]; conditions: Compound concentration 1000.0 nM
Rattus norvegicus = organism: Rattus norvegicus; conditions: Compound concentration 10.0 uM
[26] = biological target: Mitogen-activated protein kinase 11 (Homo sapiens) (UniProt Q15759); conditions: Compound concentration 1000.0 nM
[27] = biological target: Epithelial discoidin domain-containing receptor 1 (Homo sapiens) (UniProt Q08345); conditions: Compound concentration 1000.0 nM
[28] = biological target: Homeodomain-interacting protein kinase 3 (Homo sapiens) (UniProt Q9H422); conditions: Compound concentration 1000.0 nM
[29] = biological target: Receptor-interacting serine/threonine-protein kinase 1 (Homo sapiens) (UniProt Q13546); conditions: Compound concentration 1000.0 nM
[30] = biological target: 5-hydroxytryptamine receptor 2B (Homo sapiens) (UniProt P41595); conditions: Compound concentration 10.0 uM
[31] = biological target: Serine/threonine-protein kinase RIO1 (Homo sapiens) (UniProt Q9BRS2); conditions: Compound concentration 1000.0 nM
[32] = biological target: MAP kinase-interacting serine/threonine-protein kinase 1 (Homo sapiens) (UniProt Q9BUB5); conditions: Compound concentration 1000.0 nM
[33] = biological target: Phosphatidylinositol 5-phosphate 4-kinase type-2 beta (Homo sapiens) (UniProt P78356); conditions: Compound concentration 1000.0 nM
[34] = test system: Epidermal growth factor receptor (Homo sapiens), P00533 [UNDEFINED MUTATION]; conditions: Compound concentration 1000.0 nM
[35] = biological target: Mitogen-activated protein kinase kinase kinase 14 (Homo sapiens) (UniProt Q99558); conditions: Compound concentration 1000.0 nM
[36] = biological target: Cyclin-dependent kinase 15 (Homo sapiens) (UniProt Q96Q40); conditions: Compound concentration 1000.0 nM
[37] = biological target: Glycogen synthase kinase-3 alpha (Homo sapiens) (UniProt P49840); conditions: Compound concentration 1000.0 nM
[38] = biological target: LIM domain kinase 1 (Homo sapiens) (UniProt P53667); conditions: Compound concentration 1000.0 nM

Glycogen synthase kinase-3 alpha (Homo sapiens), sequence (P49840 2-483 limits assumed): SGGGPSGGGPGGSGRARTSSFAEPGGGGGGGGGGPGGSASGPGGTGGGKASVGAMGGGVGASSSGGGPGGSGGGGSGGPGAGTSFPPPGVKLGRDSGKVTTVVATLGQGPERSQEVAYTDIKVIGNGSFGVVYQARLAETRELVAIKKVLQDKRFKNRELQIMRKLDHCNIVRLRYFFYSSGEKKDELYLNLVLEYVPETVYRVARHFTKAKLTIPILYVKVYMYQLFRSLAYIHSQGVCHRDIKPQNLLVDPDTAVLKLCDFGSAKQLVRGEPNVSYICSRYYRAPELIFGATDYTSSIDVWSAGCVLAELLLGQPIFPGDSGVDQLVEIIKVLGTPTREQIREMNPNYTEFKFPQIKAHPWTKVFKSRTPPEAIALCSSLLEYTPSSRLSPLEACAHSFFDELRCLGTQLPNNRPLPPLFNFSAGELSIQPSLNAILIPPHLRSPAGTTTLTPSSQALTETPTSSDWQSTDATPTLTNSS
Serine/threonine-protein kinase RIO1 (Homo sapiens), sequence (Q9BRS2 whole entry): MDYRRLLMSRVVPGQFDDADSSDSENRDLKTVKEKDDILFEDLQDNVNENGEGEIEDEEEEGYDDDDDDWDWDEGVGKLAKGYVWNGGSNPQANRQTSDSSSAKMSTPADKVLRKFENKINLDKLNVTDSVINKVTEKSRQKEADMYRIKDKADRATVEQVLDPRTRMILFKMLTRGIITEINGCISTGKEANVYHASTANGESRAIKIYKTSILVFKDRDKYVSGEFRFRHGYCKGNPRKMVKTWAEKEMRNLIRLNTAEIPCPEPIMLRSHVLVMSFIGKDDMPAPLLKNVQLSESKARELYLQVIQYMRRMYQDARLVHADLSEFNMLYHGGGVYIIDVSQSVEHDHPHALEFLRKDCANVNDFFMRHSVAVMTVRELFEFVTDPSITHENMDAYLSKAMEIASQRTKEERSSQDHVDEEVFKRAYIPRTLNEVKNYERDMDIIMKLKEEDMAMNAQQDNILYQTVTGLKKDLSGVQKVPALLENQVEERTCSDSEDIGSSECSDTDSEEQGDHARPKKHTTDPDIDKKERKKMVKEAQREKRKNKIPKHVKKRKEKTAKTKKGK
MAP kinase-interacting serine/threonine-protein kinase 1 (Homo sapiens), sequence (Q9BUB5 whole entry, looked up): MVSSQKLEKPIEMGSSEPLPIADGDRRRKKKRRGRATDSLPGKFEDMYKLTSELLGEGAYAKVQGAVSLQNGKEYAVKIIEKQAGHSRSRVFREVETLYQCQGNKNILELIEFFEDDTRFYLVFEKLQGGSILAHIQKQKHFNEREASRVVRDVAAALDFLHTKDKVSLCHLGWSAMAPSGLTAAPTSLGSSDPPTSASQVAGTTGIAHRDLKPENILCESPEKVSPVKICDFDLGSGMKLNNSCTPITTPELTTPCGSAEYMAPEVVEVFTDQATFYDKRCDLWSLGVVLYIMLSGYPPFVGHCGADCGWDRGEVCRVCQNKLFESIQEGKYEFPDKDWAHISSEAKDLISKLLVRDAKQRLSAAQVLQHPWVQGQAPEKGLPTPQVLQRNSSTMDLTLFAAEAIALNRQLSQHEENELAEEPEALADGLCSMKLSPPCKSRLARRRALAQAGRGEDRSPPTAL
5-hydroxytryptamine receptor 2B (Homo sapiens), sequence (P41595 whole entry): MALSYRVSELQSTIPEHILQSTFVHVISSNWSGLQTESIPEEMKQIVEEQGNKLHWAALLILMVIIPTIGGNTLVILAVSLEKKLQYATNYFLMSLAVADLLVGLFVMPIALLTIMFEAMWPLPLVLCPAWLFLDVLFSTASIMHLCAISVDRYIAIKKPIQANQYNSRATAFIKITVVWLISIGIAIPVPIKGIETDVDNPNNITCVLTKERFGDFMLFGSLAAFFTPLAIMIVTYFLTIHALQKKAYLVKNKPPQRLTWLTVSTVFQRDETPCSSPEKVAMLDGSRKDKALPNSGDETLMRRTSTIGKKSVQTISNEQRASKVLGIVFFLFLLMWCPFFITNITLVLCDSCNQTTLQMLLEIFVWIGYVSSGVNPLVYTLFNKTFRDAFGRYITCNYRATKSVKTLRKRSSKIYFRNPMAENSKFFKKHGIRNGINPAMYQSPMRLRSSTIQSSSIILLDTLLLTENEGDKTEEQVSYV
Serine/threonine-protein kinase 32A (Homo sapiens), sequence (Q8WU08 whole entry): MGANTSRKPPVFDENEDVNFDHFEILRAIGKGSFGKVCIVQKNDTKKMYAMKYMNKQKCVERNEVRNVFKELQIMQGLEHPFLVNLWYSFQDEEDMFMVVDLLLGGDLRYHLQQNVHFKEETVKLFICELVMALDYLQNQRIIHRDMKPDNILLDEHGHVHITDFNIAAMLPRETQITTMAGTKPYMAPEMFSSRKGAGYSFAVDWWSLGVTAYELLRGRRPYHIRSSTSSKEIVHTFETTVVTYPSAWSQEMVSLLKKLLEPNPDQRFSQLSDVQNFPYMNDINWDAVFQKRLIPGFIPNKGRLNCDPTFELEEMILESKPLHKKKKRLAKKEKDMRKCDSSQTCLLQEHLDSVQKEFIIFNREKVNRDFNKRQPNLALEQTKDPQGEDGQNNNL
Mitogen-activated protein kinase kinase kinase 13 (Homo sapiens), sequence (O43283 whole entry): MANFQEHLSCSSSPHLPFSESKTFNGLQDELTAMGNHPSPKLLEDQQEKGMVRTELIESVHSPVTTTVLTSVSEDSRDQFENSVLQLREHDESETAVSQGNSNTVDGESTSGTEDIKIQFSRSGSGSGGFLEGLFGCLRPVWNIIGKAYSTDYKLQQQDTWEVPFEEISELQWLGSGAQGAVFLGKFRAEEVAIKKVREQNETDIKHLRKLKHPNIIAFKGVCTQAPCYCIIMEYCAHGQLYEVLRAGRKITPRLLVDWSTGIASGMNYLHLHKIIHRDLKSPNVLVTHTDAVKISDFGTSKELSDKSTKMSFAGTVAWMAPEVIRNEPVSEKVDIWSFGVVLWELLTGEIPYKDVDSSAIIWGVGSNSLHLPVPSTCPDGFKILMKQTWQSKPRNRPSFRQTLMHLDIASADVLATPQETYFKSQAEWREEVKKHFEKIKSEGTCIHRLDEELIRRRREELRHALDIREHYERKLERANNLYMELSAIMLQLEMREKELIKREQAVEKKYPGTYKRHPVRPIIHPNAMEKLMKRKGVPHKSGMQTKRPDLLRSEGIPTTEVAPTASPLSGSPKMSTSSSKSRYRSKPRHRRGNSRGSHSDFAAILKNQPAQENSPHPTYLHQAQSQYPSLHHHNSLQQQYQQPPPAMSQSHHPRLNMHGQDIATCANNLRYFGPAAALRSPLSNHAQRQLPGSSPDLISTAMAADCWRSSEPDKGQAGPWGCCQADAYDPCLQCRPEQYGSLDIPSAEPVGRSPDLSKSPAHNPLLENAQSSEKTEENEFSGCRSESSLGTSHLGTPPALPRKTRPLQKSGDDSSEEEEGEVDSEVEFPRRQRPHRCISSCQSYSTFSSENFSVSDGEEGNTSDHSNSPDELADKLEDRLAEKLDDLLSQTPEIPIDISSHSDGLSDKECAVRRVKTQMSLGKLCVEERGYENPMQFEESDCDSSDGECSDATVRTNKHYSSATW
Cyclin-dependent kinase 16 (Homo sapiens), sequence (Q00536 whole entry): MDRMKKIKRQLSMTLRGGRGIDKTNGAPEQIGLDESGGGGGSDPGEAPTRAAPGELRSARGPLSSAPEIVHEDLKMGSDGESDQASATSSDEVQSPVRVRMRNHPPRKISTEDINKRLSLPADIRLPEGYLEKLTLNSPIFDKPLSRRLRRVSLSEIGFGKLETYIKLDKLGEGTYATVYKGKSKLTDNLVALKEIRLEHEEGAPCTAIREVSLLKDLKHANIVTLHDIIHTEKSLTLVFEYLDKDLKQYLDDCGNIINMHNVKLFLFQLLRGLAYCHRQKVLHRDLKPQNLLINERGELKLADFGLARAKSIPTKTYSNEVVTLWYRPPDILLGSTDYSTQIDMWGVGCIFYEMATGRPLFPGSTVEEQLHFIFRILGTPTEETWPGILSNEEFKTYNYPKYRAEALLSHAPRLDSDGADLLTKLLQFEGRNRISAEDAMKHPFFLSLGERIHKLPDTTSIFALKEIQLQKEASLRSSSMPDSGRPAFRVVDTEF
Serine/threonine-protein kinase DCLK1 (Homo sapiens), sequence (O15075 whole entry): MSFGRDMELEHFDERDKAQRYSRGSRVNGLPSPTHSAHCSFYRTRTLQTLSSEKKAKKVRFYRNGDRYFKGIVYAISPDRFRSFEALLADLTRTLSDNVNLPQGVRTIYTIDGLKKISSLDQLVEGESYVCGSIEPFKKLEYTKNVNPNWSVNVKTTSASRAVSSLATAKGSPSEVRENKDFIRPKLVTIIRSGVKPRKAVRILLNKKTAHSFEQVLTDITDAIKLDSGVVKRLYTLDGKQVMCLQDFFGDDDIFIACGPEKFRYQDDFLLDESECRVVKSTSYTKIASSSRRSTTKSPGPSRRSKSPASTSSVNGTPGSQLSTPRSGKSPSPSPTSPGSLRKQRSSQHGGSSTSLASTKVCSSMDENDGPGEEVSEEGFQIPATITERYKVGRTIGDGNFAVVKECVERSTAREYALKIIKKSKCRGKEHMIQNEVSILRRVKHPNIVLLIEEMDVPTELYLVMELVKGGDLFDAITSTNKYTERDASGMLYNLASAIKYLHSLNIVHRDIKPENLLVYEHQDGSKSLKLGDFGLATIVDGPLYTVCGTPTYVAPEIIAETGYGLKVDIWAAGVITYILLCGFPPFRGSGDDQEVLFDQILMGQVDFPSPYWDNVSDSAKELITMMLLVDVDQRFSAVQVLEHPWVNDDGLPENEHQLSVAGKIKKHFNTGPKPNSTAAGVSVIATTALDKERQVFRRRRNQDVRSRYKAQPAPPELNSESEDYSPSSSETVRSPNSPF
Phosphatidylinositol 5-phosphate 4-kinase type-2 beta (Homo sapiens), sequence (P78356 whole entry): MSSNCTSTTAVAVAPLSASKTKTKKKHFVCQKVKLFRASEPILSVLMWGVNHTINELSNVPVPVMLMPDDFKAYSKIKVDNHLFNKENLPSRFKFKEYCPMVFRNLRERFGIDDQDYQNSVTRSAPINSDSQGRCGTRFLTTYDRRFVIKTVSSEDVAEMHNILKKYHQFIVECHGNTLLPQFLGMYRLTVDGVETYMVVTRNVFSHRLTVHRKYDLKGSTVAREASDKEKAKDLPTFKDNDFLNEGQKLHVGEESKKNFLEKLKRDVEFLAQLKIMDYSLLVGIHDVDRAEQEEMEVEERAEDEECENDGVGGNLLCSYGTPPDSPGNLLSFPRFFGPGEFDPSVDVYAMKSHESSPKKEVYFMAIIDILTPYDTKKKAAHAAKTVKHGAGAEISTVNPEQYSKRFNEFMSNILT

SMILES	residual activity [1] [%]	residual activity [2] [%]	residual activity [3] [%]	residual activity [4] [%]	residual activity [5] [%]	residual activity [6] [%]	residual activity [7] [%]	residual activity [8] [%]	residual activity [9] [%]	residual activity [10] [%]	residual activity [11] [%]	residual activity [12] [%]	residual activity [13] [%]	residual activity [14] [%]	residual activity [15] [%]	residual activity [16] [%]	residual activity [17] [%]	residual activity [18] [%]	residual activity [19] [%]	residual activity [20] [%]	other results
CC1=C(C#N)C(c2ccc3c(c2)c(NC(=O)c2ccccc2C)nn3C)C(C#N)=C(C)N1 [BAY-974]	100	99	87	92	100	79	64	66	100	64	82	87	69	100	93	95	79	78	98	90	residual activity [21]: 80%; residual activity [22]: 87%; residual activity [23]: 79%; residual activity [24]: 88%; residual activity [25]: 80%; inhibition (Rattus norvegicus): 96.3%; residual activity [26]: 100%; residual activity [27]: 74%; residual activity [28]: 73%; residual activity [29]: 100%; inhibition [30]: 11.4%; residual activity [31]: 93%; residual activity [32]: 70%; residual activity [33]: 83%; residual activity [34]: 78%; residual activity [35]: 69%; residual activity [36]: 100%; residual activity [37]: 100%; residual activity [38]: 94%
CCc1ccccc1C(=O)Nc1n[nH]c2c(C)c(F)c(C3C(C#N)=C(C)N(C)C(C)=C3C#N)cc12 [BAY-3827]	84	100	61	100	100	100	11	88	82	100	100	100	100	92	100	100	100	100	91	3.2	residual activity [21]: 100%; residual activity [22]: 100%; residual activity [23]: 87%; residual activity [24]: 71%; residual activity [25]: 93%; inhibition (Rattus norvegicus): 85.6%; residual activity [26]: 91%; residual activity [27]: 48%; residual activity [28]: 100%; residual activity [29]: 100%; inhibition [30]: 32.5%; residual activity [31]: 82%; residual activity [32]: 100%; residual activity [33]: 91%; residual activity [34]: 29%; residual activity [35]: 75%; residual activity [36]: 95%; residual activity [37]: 90%; residual activity [38]: 100%
